Series [1] concerns Wistar rats (DNCB-induced atopic dermatitis). The experiment in a line: Histologic assessment of ear skin in atopic dermatitis rat model. Format: in vivo. Particulars: lesions treated with the composition of urolithin A; day 32; FIG. 8. On the procedure: Wistar rats aged 5-6 weeks (at the start of the experiment) kept under standard conditions with free access to feed and water were used for the tests. The animals were divided into 5 groups, 8 individuals in each group. To prepare 2,4-dinitrochlorobenzene (DNCB) composition inducing inflammation, DNCB was dissolved in 70% ethanol to a final concentration of 1.5% (w/v). Therapeutic composition was an ointment based on white petrolatum with 0.2% or 1.0% urolithin A added. The control ointment was white petrolatum without addition of urolithin A. The induction of chronic atopic dermatitis involved local 9-fold infiltration with 60 μl 1.5% 2,4-dinitrochlorobenzene (DNCB) on each (external and internal) surface of the right ear over 3 weeks (3 times a week). Negative control was the right ear of rats without induction inflammation. Treatment of atopic dermatitis with 0.2% or 1.0% urolithin composition and white petrolatum (control) or 1.0% hydrocortisone composition (positive control) was started eight days after sensitization—one day before the fourth application of DNCB. Ointments with appropriate for given group drug added were applied in a total volume of about 20 μl to each ear surface one day before and 6 hours after each DNCB application (for a period of 3 weeks). […]

The subject of another series is TNF-alpha. The experiment in a line: TNF-alpha production by THP-1 derived macrophages (ELISA). It counts as cell-based, human. To be noted: 40 μM; LPS stimulation; FIG. 13. As to the method:
Monocytes of the THP-1 line were cultured in RPMI 1640 medium supplemented with 10% FBS and 2 mM glutamine. For transformation of monocytes into macrophages, the cells were treated with 12.5 ng/mL PMA (phorbol 12-myristate 13-acetate) for 48 hours, then washed and incubated for 24 hours in a culture medium without PMA. After this time, urolithin A, urolithin B, iso-urolithin A and the corresponding glucuronides (GUA, GUB and GiUA) were added to the cells at a concentration of 40 μM. After 1 hour of incubation with the compounds, the cells were stimulated with LPS from Escherichia coli (10 ng/mL).
To assess the level of TNF-alpha production, the cells were incubated for 6 hours, to assess the expression of mRNA for TNF-alpha, the cells were incubated for 24 hours, to assess the effect on ERK1/2 phosphorylation, the cells were incubated for 35 minutes.
The level of TNF-alpha in the culture medium was determined using the immunochemical ELISA method (BD biosciences). Evaluation of the expression of mRNA for TNF-alpha was performed using real time PCR. After 24 hours of incubation, RNA was isolated using NucleoSpin RNA Clean-up (Macherey-Nagel). The amount and quality of isolated RNA was determined using 2100 Bioanalyzer (Agilent Technologies). The expression level of mRNA for TNF-α was determined using Brilliant II SYBR Green QPCR Kit and Aria Mx Real-Time PCR thermocycler (Agilent Technologies). The following were used as primers for TNF-alpha: forward: 5′-[…]-3′, reverse: 5′-[…]-3′. Beta-actin (ACTB) was used as the housekeeping gene; primer forward: 5′-[…]-3′, reverse: 5′-[…]-3′).
The obtained results of experiments on in vitro models were analyzed using the Statistica 13 program (StatSoft, Inc., Tulsa, OK, USA) and presented as mean values±SEM. Statistical significance was set at P≤0.05. The results with established normal distribution in the D'Agostin and Pearson test were prepared using analysis of variance (ANOVA). Parametric post-hoc analysis was performed using Dunnett's test.

The next series concerns ERK1/2. In words: ERK1/2 phosphorylation in THP-1 derived macrophages (Western blotting). Particulars: 40 μM; LPS 10 ng/mL, 35 min; FIG. 15. Format: cell-based, human. On the procedure: Monocytes of the THP-1 line were cultured in RPMI 1640 medium supplemented with 10% FBS and 2 mM glutamine. For transformation of monocytes into macrophages, the cells were treated with 12.5 ng/mL PMA (phorbol 12-myristate 13-acetate) for 48 hours, then washed and incubated for 24 hours in a culture medium without PMA. After this time, urolithin A, urolithin B, iso-urolithin A and the corresponding glucuronides (GUA, GUB and GiUA) were added to the cells at a concentration of 40 μM. After 1 hour of incubation with the compounds, the cells were stimulated with LPS from Escherichia coli (10 ng/mL). To assess the level of TNF-alpha production, the cells were incubated for 6 hours, to assess the expression of mRNA for TNF-alpha, the cells were incubated for 24 hours, to assess the effect on ERK1/2 phosphorylation, the cells were incubated for 35 minutes. […] The obtained results of experiments on in vitro models were analyzed using the Statistica 13 program (StatSoft, Inc., Tulsa, OK, USA) and presented as mean values±SEM. Statistical significance was set at P≤0.05. The results with established normal distribution in the D'Agostin and Pearson test were prepared using analysis of variance (ANOVA). Parametric post-hoc analysis was performed using Dunnett's test.
Background: In western blotting, separated proteins are transferred to a membrane and probed.

Series [2] can be described thus: Local application of urolithin A ointment on skin by volunteers. It counts as in vivo, human. Particulars: 1.0% urolithin A ointment in white petrolatum, 20 mg per 4 cm^2 once a day for two weeks.
Description: The therapeutic composition was an ointment prepared on the base of white petrolatum with 1.0% urolithin A added. The control ointment was white petrolatum without the addition of urolithin A. 1.0% urolithin A composition and the carrier—white petrolatum was applied on washed and dried skin by volunteers themselves, at a dose of 20 mg ointment per surface 4 cm^2 daily, once a day for two weeks.
The following parameters were taken into account in the study: feeling of discomfort after application of the composition on the skin, ease of application, discoloration of the skin at the site of application, redness of the skin at the site of application of the composition, degree of drying of the treated area of the skin, sensation of pinching, burning, itching and other types of discomfort. Participants in the study determined their level of satisfaction/dissatisfaction on a 10-point scale, 0 being dissatisfaction and 10 being satisfaction with the pharmaceutical composition of the present invention.
Series [3] can be described thus: Thermal, acid and UV stability of urolithin A (UPLC-DAD-MS). Format: physicochemical. To be noted: 80 μM in deionized water or 1M HCl, 24 hours at 37° C. or 12 hours at 80° C.; UVA 365 nm 12 hours. As to the method:
Urolithin A at 80 μM was suspended in deionized water or 1M HCl and incubated for 24 hours at 37° C. or for 12 hours at 80° C. The urolithin A solution was also irradiated for 12 hours with a UV lamp emitting UVA radiation with the maximum at 365 nm. The concentration of urolithin A after incubation was determined using the UPLC-DAD-MS method according to Piwowarski et al. 2016.

The next series concerns hyaluronidase. The experiment in a line: Hyaluronidase activity, pharmacopoeial method (USP). Particulars: experiments by the inventors. Format: biochemical. The source says:
US application US2010323985A discloses the use of a compound from the group of urolithins, urolithin B, as a component of a pharmaceutical or cosmetic preparation for topical and/or parenteral use. […] Urolithin B has been indicated as an example of one of hyaluronic acid degradation inhibitors, alone or in a mixture. With respect to the above, the inventors conducted experiments according to the pharmacopoeial method (USP), observing as a result no effect of urolithin A on hyaluronidase activity. […] Also, in the case of psoriasis, research is currently underway on effectiveness of hyaluronidase subcutaneous injections ([…] preparation; https://clinicaltrials.gov/ct2/show/NCT01987609).

In a further series the test system is human fibroblasts. To be noted: human fibroblasts in vitro; cited from earlier work.
For series [4] the following is noted: following ingestion of food products rich in ellagitannins; cited from earlier work.

On to `O=c1oc2cc(O)ccc2c2ccc(O)cc12` [urolithin A], for which, in series [1], the “Histology of skin lesions” value was “Mild epidermal hyperplasia, infiltration of mononuclear cells (mast cells) and neutrophils. A slight infiltration of inflammatory cells around the blood vessels”. For the same compound, the “TNF-alpha production by THP-1 derived macrophages” value with TNF-alpha is reported as “inhibition of pro-inflammatory cytokine TNF-alpha production”. The “ERK1/2 kinase phosphorylation in THP-1 derived macrophages” value with ERK1/2 was “stimulation of ERK1/2 kinase phosphorylation”. The “Adverse effects after skin application” value in series [2] is listed as “did not cause any adverse effects”. Further, the “Stability (degradation / change in chemical structure)” value in series [3] was “stable”. Moreover, the “Effect on hyaluronidase activity” value in the series on hyaluronidase is “no effect”. Also, in the series on human fibroblasts, the Collagen synthesis entry is given as “stimulated collagen synthesis”, the “Inhibition of fibroblast aging” value is given as “no inhibition of fibroblast aging was found” and the “mRNA expression for matrix metalloproteinase-1” value is recorded as “inhibited the mRNA expression”. Further, in series [4], the “Concentration in feces, tissues, blood and urine” value is at most 100 µM.
